Source: patent USRE43280E1, “Hyperforin derivatives, the use thereof and formulations containing them” (Indena S.p.A., priority 2002, dated 2012)
Where two headings read alike, the source gives them in different places.

How the values were obtained:
rat = assay: forced swimming test (struggling, floating, swimming); assay type: in vivo; conditions: 3 doses: 30 minutes after the pre-test, 5 hours and 30 minutes before the test
Protocol: The compounds were administered in 3 doses: 30 minutes after the pre-test, 5 hours and 30 minutes before the test.

[1] = tested on: APPs produced by α-secretase in neuroblastoma cell line (SH-SY5Y); assay: release of APPs produced by α-secretase into the culture medium of SH-SY5Y cells; assay type: cell-based
[2] = 10 μM, SH-SY5Y culture medium, controls = 100

| Compound | Floating (rat; 6.25 mg/Kg) [s] | Struggling (rat; 6.25 mg/Kg) [s] | Swimming (rat; 6.25 mg/Kg) [s] | APPs % [1, 2] [%] | Floating (rat; 10 mg/Kg) [s] | Struggling (rat; 10 mg/Kg) [s] | Swimming (rat; 10 mg/Kg) [s] | APPs % [1] [%] |
| --- | --- | --- | --- | --- | --- | --- | --- | --- |
| tetrahydrohyperforin | 68.4 ± 7.6 | 51.4 ± 4.1 | 193.4 ± 13.2 | 926 |  |  |  |  |
| CC(=O)OC1=C(CCC(C)C)C(=O)[C@@]2(CCC(C)C)C[C@H](CCC(C)C)[C@@](C)(CCCC(C)C)[C@]1(C(=O)C(C)C)C2=O [Acetyloctahydrohyperforin, acetyloctahydrohyperforin] | 68.4 ± 5.7 | 73.9 ± 5.9 | 171.9 ± 11.4 | 954 |  |  |  |  |
| dodecahydrohyperforin | 55.1 ± 6.2 | 62.13 ± 5.1 | 169.5 ± 10.1 | 879 |  |  |  |  |
| CNCCCN1c2ccccc2CCc2ccccc21 [Desipramin, reference compound] |  |  |  |  | 53.0 ± 9.2 | 148.3 ± 12.6 | 98.8 ± 7.9 |  |
| CC(C)=CCC[C@]1(C)[C@@H](CC=C(C)C)C[C@@]2(CC=C(C)C)C(=O)[C@]1(C(=O)C(C)C)C(=O)C(CC=C(C)C)=C2O [Hyperforin] | 60.4 ± 7.3 | 30.4 ± 4.6 | 99.3 ± 10.6 |  |  |  |  | 296 |
| octahydrohyperforin lithium salt | 59.5 ± 11.3 | 63.1 ± 5.8 | 177.4 ± 14.9 | 1383 |  |  |  |  |
